In patent publication US12138256B2, “Treatment of cardiopulmonary disorders” (Bayer Aktiengesellschaft, priority 2021, dated 2024):
Where two headings read alike, the source gives them in different places.

Experiment: Phase I single dose inhaled, inhaled + charcoal block, oral and intravenous: pharmacokinetics and lung deposition (C-4.3)
Assay type: in vivo, human
Settings: for bioavailability / half-life: male, human, plasma; for half-life: read-out: elimination half-life (converted)
Procedure: Healthy white male subjects, aged 18 to 45 years with a body mass index (BMI) above/equal 18.5 and below/equal 29.9 kg/m^2 were treated in a clinical phase I study with a single inhaled dose of 1000 μg (nominal dose), a single inhaled dose of 1000 μg (nominal dose)+charcoal block, a single oral dose of 1000 μg and a single infusion over 2 h of 100 μg of example 4. As the bioavailability of an intravenous application is generally 100% per definition and therefore higher than in case of an oral or […] administration, the intravenous dose was carefully selected to be lower than the oral and inhaled dose to avoid higher plasma concentration resulting from a high IV dose and potential side effect, e.g. reduction in blood pressure or syncope. Therefore, 100 μg was selected for the IV dose in this investigation. Seven days washout period between treatments was applied. The subjects swallowed a solution for oral administration (20 ml comprising 1000 μg, see under D-2, table 50). The subjects received a solution as a single infusion over 2 hours (see under D-2 table 50). The subjects inhaled the drug powder from capsules (see under D-1, e.g. tables 17 and 20) inserted into a handheld inhalation device by one deep inhalative breath. After inhalation of the dry powder formulation of this drug, some parts of the nominal dose remain in the capsule and the device, the dose which reaches the body at the mouthpiece is called the emitted dose. The emitted dose can be calculated/determined as followed: nominal dose−(remains in the capsule+remains in the device). After inhalation of the dry powder, one part of the emitted dose enters the gastrointestinal tract (GIT) and is called the oral part of the emitted dose, the other part of the emitted dose which reaches the lung through the respiratory airways is called the lung dose and represents the lung deposited dose. As the lung is the target organ of the effect, the lung deposited dose must be quantified. Lung deposition can be indirectly estimated, by determining the part of the nominal dose which reaches the GIT and the remains in the capsule and the device. To investigate and determine lung deposition, the following investigations were done (see also FIG. 77): • 1—Inhaled application of a single dose of 1000 μg of the dry powder. • 2—Inhaled application of a single dose of 1000 μg of the dry powder in combination with oral administration of charcoal block. The charcoal block capped the oral absorption of GIT part of the dose, as example 4 completely adsorbed to charcoal block. This implies that the concentrations of example 4 measured reach the systemic circulation via the lung. • 3—Administration of a single oral dose of 1000 μg example 4 to determine the oral absorption. • 4—Administration of a 2 h infusion of example 4 to investigate the elimination.
Plasma concentrations of example 4 were measured after all different types of administrations, in addition the remains in the device and the capsule were measured after inhaled application. […] The longer terminal half-life after inhalation can be explained by the formation of a pulmonary depot of example 4 in the lungs from which the substance is continuously transferred to the circulatory system.
The emitted dose is calculated to be 720 μg, as the remains in the capsule were 160 μg and the remains in the device were 120 μg, see FIG. 79.

SMILES: O=C(O)c1ccc(CCN(CCc2ccccc2OCc2ccc(-c3ccc(C(F)(F)F)cc3)cc2Cl)[C@H]2CCCc3nc(C(=O)O)ccc32)cc1 [example 4, (5S)-{[2-(4-Carboxyphenyl)ethyl][2-(2-{[3-chloro-4′-(trifluoromethyl)biphenyl-4-yl]methoxy}phenyl)-ethyl]amino}-5,6,7,8-tetrahydroquinoline-2-carboxylic acid]
- emitted dose (after inhalation of 1000 μg in humans): 720 µg
- oral part of the dose (inhaled 1000 μg): approximately 13 % of the nominal dose
- bioavailability (inhaled or intranasal, 1000 μg, dry powder inhaled with charcoal (lung dose), read-out: absolute bioavailability): 16.3%
- bioavailability (inhaled or intranasal, 1000 μg, dry powder inhaled without charcoal, read-out: absolute bioavailability): 18.8%
- half-life (inhaled or intranasal, 1000 ug, inhaled 1000 μg with charcoal): 966 min
- half-life (inhaled or intranasal, 1000 ug, inhaled 1000 μg without charcoal): 906 min
- bioavailability (inhaled or intranasal, 1000 ug, read-out: relative bioavailability, inhaled with charcoal block to inhaled without): 86.9%
- half-life (iv, 100 μg, intravenous, 100 μg infusion over 2 h): 15.6 min
- half-life (po, 1000 ug, oral, 1000 μg solution): 266 min
